Source: ChEMBL document CHEMBL5727953, “Sulfonylcycloalkyl carboxamide compounds” (2020)

Molecular target: Transient receptor potential cation channel subfamily A member 1 (Homo sapiens, UniProt O75762)
Experiment: Inhibition Assay: IC50 values (effective concentration) of compounds on the human and rat TRPA1 channels were determined using a FLIPR Tetra instrument. CHO cells expressing TRPA1 were plated into 384-well plates, incubated overnight at 37 C, and loaded with BD calcium indicator dye for 1 hr at 37° C. followed by 15 minutes. at room temperature. The assay buffer was Hank's Balanced Salt Solution (HBSS) containing 20 mM HEPES (pH readjusted to 7.4) along with 0.02% BSA.Following dye load and plate cool down, compounds were added to the cells using FLIPR Tetra. Plates were then incubated with compounds for 20 minutes at room temperature prior to adding agonist. Following this incubation, ˜EC80 concentration of cinnamaldehyde (75 uM for human TRPA1 and 45 uM for rat TRPA1) was added to active the channels and block of cinnamaldehyde induced calcium influx was measured.

Transient receptor potential cation channel subfamily A member 1, sequence (O75762 whole entry): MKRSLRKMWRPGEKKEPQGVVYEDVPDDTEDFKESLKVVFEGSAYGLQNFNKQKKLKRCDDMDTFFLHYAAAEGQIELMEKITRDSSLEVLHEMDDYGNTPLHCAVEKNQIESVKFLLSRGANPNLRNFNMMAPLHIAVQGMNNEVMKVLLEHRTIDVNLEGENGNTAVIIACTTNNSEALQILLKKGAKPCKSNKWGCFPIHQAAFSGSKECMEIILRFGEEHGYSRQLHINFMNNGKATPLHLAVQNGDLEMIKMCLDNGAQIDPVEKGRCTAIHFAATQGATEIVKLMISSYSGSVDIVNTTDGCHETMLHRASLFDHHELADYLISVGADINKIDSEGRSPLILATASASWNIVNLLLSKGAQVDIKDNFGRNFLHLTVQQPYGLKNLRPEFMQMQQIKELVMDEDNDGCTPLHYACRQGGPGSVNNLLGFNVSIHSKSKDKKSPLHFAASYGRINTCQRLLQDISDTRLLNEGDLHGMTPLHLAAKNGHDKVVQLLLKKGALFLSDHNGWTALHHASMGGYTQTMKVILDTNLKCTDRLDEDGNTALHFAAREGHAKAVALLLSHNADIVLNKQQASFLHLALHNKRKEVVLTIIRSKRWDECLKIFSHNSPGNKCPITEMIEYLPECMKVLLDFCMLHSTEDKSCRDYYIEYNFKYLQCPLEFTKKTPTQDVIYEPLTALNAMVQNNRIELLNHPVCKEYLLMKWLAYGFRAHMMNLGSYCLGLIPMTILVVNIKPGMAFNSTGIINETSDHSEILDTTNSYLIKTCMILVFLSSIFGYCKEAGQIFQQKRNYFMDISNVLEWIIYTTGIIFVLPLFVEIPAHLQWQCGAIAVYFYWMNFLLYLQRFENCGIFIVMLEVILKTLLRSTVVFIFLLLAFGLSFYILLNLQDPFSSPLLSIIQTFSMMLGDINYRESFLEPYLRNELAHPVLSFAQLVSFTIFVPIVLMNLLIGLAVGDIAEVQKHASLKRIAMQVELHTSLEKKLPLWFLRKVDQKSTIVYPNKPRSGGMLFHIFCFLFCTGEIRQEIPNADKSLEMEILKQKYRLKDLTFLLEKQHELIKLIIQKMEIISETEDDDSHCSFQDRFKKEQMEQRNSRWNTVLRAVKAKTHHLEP

IC50 [nM]	Structure (SMILES)
246	COc1nn(-c2cnc(C(F)(F)F)nc2)cc1CC(=O)N[C@@H]1CC[C@@H]1S(=O)(=O)c1ccc(F)cc1
200	O=C(Cn1cc(-c2ccc(C(F)(F)F)cc2)cn1)N[C@@H]1CC[C@@H]1S(=O)(=O)c1ccc(F)cc1
